Measured values reported in US10596150B2, “Antifungal agents” (F2G LIMITED, priority 2014, dated 2020).
Values after ≈ are worked out from the molar mass of the structure shown.

Legend:
Assay in all cases: Minimum Inhibitory Concentration (MIC), RPMI medium
Type in all cases: cell-based
[1] = tested on: Scedosporium prolifican 7935
Description: (§1) Between 1 and 5 mgs of the compound were accurately weighed out into a sterile Eppendorf tube. The compound was dissolved in DMSO to give a solution containing 5 mg/mL. Tubes were stored at −20° C. until required.
(§2) On the day of testing thawed solutions were vortex mixed to ensure homogeneity. 30 μL of solution was removed and added to 570 μL of sterile water in a separate sterile Eppendorf. The thoroughly mixed solution was used to prepare a series of doubling dilutions in water, in a deep well plate. Thirteen replicate plates were prepared using a Minitrak by aspirating 20 μL from each well into eleven clear polystyrene 96 well plates.
(§3) Spores of Aspergillus and Scedosporium were harvested from cultures grown on Sabarauds agar for 5 days, and resuspended in PBS/Tween 80 to approx 1×10^7 cfu/mL. Each organism suspension was diluted in RPMI medium, containing 2% glucose and 0.135 M MOPS buffer (pH 7.0) to 0.5-2×10^4 cfu/mL. 80 μL of an organism suspension was added to each well of the plate containing drug dilutions.
(§4) This produced MIC plates with a drug range 50-0.05 mg/L and organism inocula of 1-2×10^4 cfu/mL. All plates were incubated for 24-48 h at 35° C. Growth was assessed by monitoring the optical density at 485 nm for each well. The MIC of a compound is the lowest drug concentration that inhibits growth of an organism by >80% compared with a drug free control.

[2] = tested on: Scedosporium prolifican 15848
Description: as §1, §2, §3, §4

[3] = tested on: Scedosporium prolifican 8353
Description: as §1, §2, §3, §4

Scedos apiospermum 1124 = conditions: Scedosporium apiospermum
Description: as §1, §2, §3, §4

A. terreus = conditions: Aspergillus terreus, >80% growth inhibition
Description: as §1, §2, §3, §4

[4] = tested on: Scedosporium prolifican 4883
Description: as §1, §2, §3, §4

[5] = tested on: Scedosporium apiospermum 15848
Description: as §1, §2, §3, §4

[6] = tested on: Scedosporium prolifican 15849
Description: as §1, §2, §3, §4

[7] = tested on: Scedosporium prolificans 6322; conditions: Lomentospora prolificans
Description: as §1, §2, §3, §4

[8] = tested on: Scedosporium apiospermum 7935
Description: as §1, §2, §3, §4

A. terreus 49 = conditions: Aspergillus terreus, >80% growth inhibition
Description: as §1, §2, §3, §4

A. fumigatus 210 = conditions: Aspergillus fumigatus, >80% growth inhibition
Description: as §1, §2, §3, §4

[9] = tested on: Scedosporium prolifican 13486
Description: as §1, §2, §3, §4

[10] = tested on: Scedosporium apiospermum 8353
Description: as §1, §2, §3, §4

A. flavus = conditions: Aspergillus flavus, >80% growth inhibition
Description: as §1, §2, §3, §4

[11] = tested on: Scedosporium apiospermum 4883
Description: as §1, §2, §3, §4

[12] = tested on: Scedosporium prolificans 206; conditions: Lomentospora prolificans
Description: as §1, §2, §3, §4

[13] = tested on: Scedosporium apiospermum 13486
Description: as §1, §2, §3, §4

[14] = tested on: Scedosporium prolifican 451
Description: as §1, §2, §3, §4

A. niger = conditions: Aspergillus niger, >80% growth inhibition
Description: as §1, §2, §3, §4

[15] = tested on: Scedosporium prolifican 1121
Description: as §1, §2, §3, §4

A. fumigatus = conditions: Aspergillus fumigatus, >80% growth inhibition
Description: as §1, §2, §3, §4

[16] = tested on: Scedosporium apiospermum 451
Description: as §1, §2, §3, §4

[17] = tested on: Scedosporium prolificans 18389; conditions: Lomentospora prolificans
Description: as §1, §2, §3, §4

[18] = tested on: Scedosporium species 15849
Description: as §1, §2, §3, §4

[19] = tested on: Scedosporium prolifican 201
Description: as §1, §2, §3, §4

Cc1cc(-c2ccccc2)c(C(=O)C(=O)Nc2ccc(N3CCN(c4ncc(F)cn4)CC3)cc2)n1C [Example 1, 2-(1,5-dimethyl-3-phenyl-1H-pyrrol-2-yl)-N-(4-(4-(5-fluoropyrimidin-2-yl)piperazin-1-yl)phenyl)-2-oxoacetamide]
MIC [1]: 0.01 to 0.02 µg/mL (≈ 0.0201 to 0.0401 µM) | MIC [2]: 0.02 to 0.04 µg/mL (≈ 0.0401 to 0.0802 µM) | MIC [3]: 0.005 to 0.01 µg/mL (≈ 0.01 to 0.0201 µM) | MIC (Scedos apiospermum 1124): ≤ 0.005 µg/mL | MIC (A. terreus): ≤ 0.005 µg/mL | MIC [4]: 0.01 to 0.02 µg/mL (≈ 0.0201 to 0.0401 µM) | MIC [5]: 0.02 to 0.04 µg/mL (≈ 0.0401 to 0.0802 µM) | MIC [6]: 0.04 to 0.06 µg/mL (≈ 0.0802 to 0.12 µM) | MIC [7]: 0.02 to 0.04 µg/mL (≈ 0.0401 to 0.0802 µM) | MIC [8]: 0.01 to 0.02 µg/mL (≈ 0.0201 to 0.0401 µM) | MIC (A. terreus 49): ≤ 0.005 µg/mL | MIC (A. fumigatus 210): 0.01 to 0.02 µg/mL (≈ 0.0201 to 0.0401 µM) | MIC [9]: 0.02 to 0.04 µg/mL (≈ 0.0401 to 0.0802 µM) | MIC [10]: 0.005 to 0.01 µg/mL (≈ 0.01 to 0.0201 µM) | MIC (A. flavus): 0.005 to 0.01 µg/mL (≈ 0.01 to 0.0201 µM) | MIC [11]: 0.01 to 0.02 µg/mL (≈ 0.0201 to 0.0401 µM) | MIC [12]: 0.02 to 0.04 µg/mL (≈ 0.0401 to 0.0802 µM) | MIC Scedosporium apiospermum 13486 [13]: D (A grade of D represents an MIC of greater than 0.02 mg/L but less than or equal to 0.04 mg/L) | MIC ([13]; Scedosporium apiospermum, 13486): 0.02 to 0.04 µg/mL (≈ 0.0401 to 0.0802 µM) | MIC [14]: 0.005 to 0.01 µg/mL (≈ 0.01 to 0.0201 µM) | MIC (A. niger): 0.01 to 0.02 µg/mL (≈ 0.0201 to 0.0401 µM) | MIC [15]: ≤ 0.005 µg/mL | MIC (A. fumigatus): 0.01 to 0.02 µg/mL (≈ 0.0201 to 0.0401 µM) | MIC [16]: 0.005 to 0.01 µg/mL (≈ 0.01 to 0.0201 µM) | MIC [17]: 0.01 to 0.02 µg/mL (≈ 0.0201 to 0.0401 µM) | MIC [18]: 0.04 to 0.06 µg/mL (≈ 0.0802 to 0.12 µM) | MIC [19]: 0.02 to 0.04 µg/mL (≈ 0.0401 to 0.0802 µM)
